In PMC9296036, “A peptide interfering with the dimerization of oncogenic KITENIN protein and its stability suppresses colorectal tumour progression” (Clinical and Translational Medicine, 2022):
Ends that are not written are not given here.

What was measured:
[1] = Detection of KDIP and truncated forms in tumour and liver tissue by LC-MS/MS (MRM) after intravenous injection; assay type: in vivo, mouse; details: tissues collected 20 min after fifth intravenous injection of KDIP 5 mg/kg, below the limit of detection
Method: At 20 min after fifth intravenous injection of KDIP, tumour and liver tissues were collected, immediately frozen using liquid nitrogen and ground with a pestle and mortar. One part of resultant powder by weight was homogenized with two parts of lysis buffer containing 8‐M urea, 25‐mM Tris–HCl (pH 8.5) by volume and was placed in Eppendorf tubes. This lysate was sonicated three times for 2 s with 2‐s intervals of rest at 20% amplitude on ice. Insoluble debris was removed by obtaining supernatant after centrifugation at 14 000 g, 4°C for 15 min.
Peptide extraction from serum or tissue lysate was performed by solid‐phase extraction using Oasis HLB Cartridge 1‐cm^3 (30 mg). HLB cartridges were conditioned using ACN (1 ml) and 50% ACN, .5% FA (1 ml), followed by equilibration using .5% FA (2 ml). A volume of 10‐μl serum and 20 μl of tissue lysate were added by .5% FA to be 1 ml and were loaded on equilibrated cartridges. Cartridges were washed with .5% FA (3 ml), and then peptide was eluted by 50% ACN, .5% FA (500 μl). Eluates were vacuum‐dried using Speed‐Vac and were stored at −80°C until use. Dried samples were reconstituted in .5% FA 50 and 5 μl of sample was loaded on column for LC–MS/MS analysis.
(§1) Each sample was analysed using an Agilent 1100 Series high‐performance liquid chromatography pump (Agilent Technologies, USA) coupled to an LTQ linear ion trap mass spectrometer (Thermo Finnigan, USA). Separation of peptide was carried out on a homemade C18‐fused silica column (100‐μm internal diameter) with nano‐electrospray ionization interface. […] Peptide was quantified by multiple reaction monitoring (MRM) in positive ion mode, with a spray voltage of 2.3 kV. […] Furthermore, truncated forms ([…], […]) of KDIP that were detected during stability test were also analysed by following transitions: 468.5 → 404.8 (b16 ^+5), 468.5 → 444.85 (b18 ^+5), 468.5 → 505.7 (b16 ^+4), 468.5 → 551.35 (b18 + H2O^+4), 468.5 → 555.7 (b18 ^+4), 528.45 → 448.85 (b14 ^+4), 528.45 → 499.0 (b16 ^+4), 528.45 → 598.15 (b14 ^+3), 528.45 → 659.25 (b16 + H2O^+3) and 528.45 → 664.95 (b16 ^+3). […]

[2] = Stability of KDIP in mouse serum in vitro (LC-MS/MS); assay type: in vitro ADME; details: 10 pmol KDIP spiked to 10 μl serum, room temperature, 0-160 min (7 times), LC-MS/MS MRM, n=3 per time
Method: Experiment for stability in serum was conducted with seven different incubation time (0, 5, 10, 20, 40, 80, 160 min). KDIP 10 pmol was spiked to 10 μl of serum, and samples were incubated at room temperature. Samples for each incubation time were triplicated.
Peptide extraction from serum or tissue lysate was performed by solid‐phase extraction using Oasis HLB Cartridge 1‐cm^3 (30 mg). HLB cartridges were conditioned using ACN (1 ml) and 50% ACN, .5% FA (1 ml), followed by equilibration using .5% FA (2 ml). A volume of 10‐μl serum and 20 μl of tissue lysate were added by .5% FA to be 1 ml and were loaded on equilibrated cartridges. […]
as §1, with “USA).” for “USA). Separation of peptide was carried out on a homemade C18‐fused silica column (100‐μm internal diameter) with nano‐electrospray ionization interface.”

## YARVRRRGPRRWRLVSDEAV [KDIP]
[1]
  detection in regressed tumour tissues or liver by mass spectrometry: not detected
[2]
  terminal half-life in mouse serum in vitro: 30.86 min
